From patent US20250163047A1, “HETEROCYCLIC COMPOUNDS, COMPOSITIONS THEREOF, AND METHODS OF TREATMENT THEREWITH” (BeiGene, Ltd., priority 2022, published 2025) come the findings set out here.

pIC50: −log10 of the molar value.

The target in one assay is T1, Cbl-b (aa36-427) (Homo sapiens, UniProt Q13191).
T1 construct: Cbl-b (aa36-427, in-house); made in house
In words: Co-expressed Cbl-b with BirA biochemical assay (CBLB/E2-Ub binding, HTRF). The settings on record: 0.6 nM Cbl-b co-expressed with BirA, HTRF; read-out: co-express CBLB/E2-Ub-binding assay IC50. An excerpt:
(§1) The assay in the absence of a Cbl-b/Cbl inhibitor, where phosphorylation of Cbl-b/Cbl by the Src kinase allows UbcH5B-Ub to bind to Cbl-b/Cbl and brings the Bodipy-Fluorescein tagged ubiquitin in proximity to the streptavidin-terbium bound to the N-terminal biotinylated Avi-tagged Cbl-b/Cbl. […] The lack of a FRET signal indicates Cbl-b/Cbl is inhibited by the Cbl-b/Cbl inhibitor.
A general note: Time-resolved FRET reads energy transfer from a long-lived donor to a nearby acceptor.

For the next assay, the target named is T2, Cbl (aa49-434) (Homo sapiens, UniProt P22681).
T2 construct: Cbl (aa49-434, in-house); made in house
T2 sequence (P22681 49-434): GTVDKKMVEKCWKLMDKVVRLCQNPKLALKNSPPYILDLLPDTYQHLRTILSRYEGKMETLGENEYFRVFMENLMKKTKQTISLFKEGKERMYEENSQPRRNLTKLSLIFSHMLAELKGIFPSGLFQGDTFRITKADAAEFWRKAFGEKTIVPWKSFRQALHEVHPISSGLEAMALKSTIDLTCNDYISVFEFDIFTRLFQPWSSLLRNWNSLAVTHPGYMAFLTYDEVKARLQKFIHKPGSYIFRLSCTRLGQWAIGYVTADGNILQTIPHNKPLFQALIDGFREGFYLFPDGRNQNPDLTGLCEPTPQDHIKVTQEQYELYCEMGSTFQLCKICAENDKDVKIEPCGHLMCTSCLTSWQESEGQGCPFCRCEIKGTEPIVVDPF
In words: Co-expressed Cbl with BirA biochemical assay (CBL/E2-Ub binding, HTRF). The settings on record: 0.6 nM Cbl co-expressed with BirA, read-out: co-express CBL/E2-Ub-binding assay IC50.
Source text: as §1

T1 sequence (Q13191 36-427): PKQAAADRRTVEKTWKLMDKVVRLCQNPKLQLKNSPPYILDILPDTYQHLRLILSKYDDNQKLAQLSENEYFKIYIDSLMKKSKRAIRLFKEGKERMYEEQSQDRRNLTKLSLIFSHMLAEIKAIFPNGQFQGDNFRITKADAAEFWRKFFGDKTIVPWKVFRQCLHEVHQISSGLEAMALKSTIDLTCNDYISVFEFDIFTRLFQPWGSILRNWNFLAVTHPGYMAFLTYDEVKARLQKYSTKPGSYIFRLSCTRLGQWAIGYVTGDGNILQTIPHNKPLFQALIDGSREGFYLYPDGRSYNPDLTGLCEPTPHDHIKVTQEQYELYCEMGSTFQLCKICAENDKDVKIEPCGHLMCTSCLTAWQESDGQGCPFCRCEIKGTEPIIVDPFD

As for `C[C@H](NCc1cc(C(=O)Nc2cccc([C@]3(c4nncn4C)C[C@@H](CC#N)C3)c2)nc2c1OCC2(C)C)C1CCC1` [Compound C28, 7-({[(1S)-1-cyclobutylethyl]amino}methyl)-3,3-dimethyl-N-{3-[(1s, 3s)-3-(cyanomethyl)-1-(4-methyl-1,2,4-triazol-3-yl)cyclobutyl]phenyl}-2H-furo[3,2-b]pyridine-5-carboxamide], the pIC50 is 9.10 at Cbl-b (aa36-427) and 8.48 at Cbl (aa49-434).

For the molecule `C[C@H]1CCCN(Cc2cc(C(=O)Nc3cccc([C@]4(Cc5nncn5C)C[C@@H](C#N)C4)c3)nc3c2CCC3(C)C)C1` [Compound C8, N-(3-((1r,3S)-3-cyano-1-((4-methyl-4H-1,2,4-triazol-3-yl)methyl)cyclobutyl)phenyl)-7,7-dimethyl-4-(((S)-3-methylpiperidin-1-yl)methyl)-6,7-dihydro-5H-cyclopenta[b]pyridine-2-carboxamide], the pIC50 on Cbl-b (aa36-427) is 9.00; at Cbl (aa49-434), 8.74.

For `Cn1cnnc1[C@]1(c2cncc(NC(=O)c3cc(CNCC4CCC4)c4[nH]ccc4n3)c2)C[C@H](C)C1` [Compound B40, 7-{[(cyclobutylmethyl)amino]methyl}-N-{5-[(1r, 3s)-3-methyl-1-(4-methyl-1,2,4-triazol-3-yl)cyclobutyl]pyridin-3-yl}-1H-pyrrolo[3,2-b]pyridine-5-carboxamide], the pIC50 on Cbl-b (aa36-427) is 9.00; on Cbl (aa49-434), 8.68.

As for `C[C@H](NCc1cc(C(=O)Nc2cccc([C@]3(c4nncn4C)C[C@@H](C)C3)c2)c2ncc(F)n2c1)C1CC1` [Compound A19, 6-((((S)-1-cyclopropylethyl)amino)methyl)-3-fluoro-N-(3-((1s,3R)-3-methyl-1-(4-methyl-4H-1,2,4-triazol-3-yl)cyclobutyl)phenyl)imidazo[1,2-a]pyridine-8-carboxamide], the pIC50 was 8.77 on Cbl-b (aa36-427) and 8.09 at Cbl (aa49-434).

On to `Cn1cnnc1[C@]1(c2cccc(NC(=O)c3cc(CNC4(C)CC4)cc4c(F)cnn34)c2)C[C@H](CC#N)C1` [Compound A94, N-(3-((1s, 3s)-3-(cyanomethyl)-1-(4-methyl-4H-1,2,4-triazol-3-yl)cyclobutyl)phenyl)-3-fluoro-5-(((1-methylcyclopropyl)amino)methyl)pyrazolo[1,5-a]pyridine-7-carboxamide], for which the pIC50 is 9.30 on Cbl-b (aa36-427) and 8.23 at Cbl (aa49-434).

Turning to `Cn1cnnc1[C@]1(c2cncc(NC(=O)c3cc(CNCC4CCC4)c4[nH]cc(F)c4n3)c2)C[C@H](C)C1` [Compound B46, 7-{[(cyclobutylmethyl)amino]methyl}-3-fluoro-N-{5-[(1r, 3s)-3-methyl-1-(4-methyl-1,2,4-triazol-3-yl)cyclobutyl]pyridin-3-yl}-1H-pyrrolo[3,2-b]pyridine-5-carboxamide], the pIC50 on Cbl-b (aa36-427) was 9.15; on Cbl (aa49-434), 8.57.

As for `C[C@H]1CCCN(Cc2cc(C(=O)Nc3cccc([C@]4(c5nncn5C)C[C@@H](CC#N)C4)c3)n3ncc(Cl)c3c2)C1` [Compound A21, 3-chloro-N-(3-((1s,3R)-3-(cyanomethyl)-1-(4-methyl-4H-1,2,4-triazol-3-yl)cyclobutyl)phenyl)-5-(((S)-3-methylpiperidin-1-yl)methyl)pyrazolo[1,5-a]pyridine-7-carboxamide], the pIC50 at Cbl-b (aa36-427) is 8.54; at Cbl (aa49-434), 7.51.

With `C[C@H](NCc1cc(C(=O)Nc2cccc([C@]3(c4nncn4C)C[C@@H](CC#N)C3)c2)nc2c1CCC2(C)C)C1CCC1` [Compound C38, N-(3-((1s,3R)-3-(cyanomethyl)-1-(4-methyl-4H-1,2,4-triazol-3-yl)cyclobutyl)phenyl)-4-((((S)-1-cyclobutylethyl)amino)methyl)-7,7-dimethyl-6,7-dihydro-5H-cyclopenta[b]pyridine-2-carboxamide], the pIC50 at Cbl-b (aa36-427) is 8.96; on Cbl (aa49-434), 8.82.

Turning to `Cn1cnnc1[C@]1(c2cncc(NC(=O)c3cc(CNC4(C)CC4)c4ccsc4n3)c2)C[C@H](C)C1` [Compound B51, N-(5-((1s, 3s)-3-methyl-1-(4-methyl-4H-1,2,4-triazol-3-yl)cyclobutyl)pyridin-3-yl)-4-(((1-methylcyclopropyl)amino)methyl)thieno[2,3-b]pyridine-6-carboxamide], the pIC50 at Cbl-b (aa36-427) was 8.85; at Cbl (aa49-434) it was 7.89.

For the molecule `C[C@H]1CCCN(Cc2cc(C(=O)Nc3cccc(C4(Cc5nncn5C)COC4)c3)nn3cccc23)C1` [Compound B12, N-(3-{3-[(4-methyl-1,2,4-triazol-3-yl)methyl]oxetan-3-yl}phenyl)-4-{[(3S)-3-methylpiperidin-1-yl]methyl}pyrrolo[1,2-b]pyridazine-2-carboxamide], the pIC50 on Cbl-b (aa36-427) is 7.62; at Cbl (aa49-434) it was 7.29.

Take `C[C@H]1CCCN(Cc2cc(C(=O)Nc3cccc(C4(c5nncn5C)CC(CC#N)C4)c3)nc3c2CCC3(C)C)C1` (stereo partly drawn) [Compound C7, (S)—N-(3-(3-(cyanomethyl)-1-(4-methyl-4H-1,2,4-triazol-3-yl)cyclobutyl)phenyl)-7,7-dimethyl-4-((3-methylpiperidin-1-yl)methyl)-6,7-dihydro-5H-cyclopenta[b]pyridine-2-carboxamide]: the pIC50 was 8.59 on Cbl-b (aa36-427) and 7.71 at Cbl (aa49-434).

Turning to `Cn1cnnc1[C@]1(c2cncc(NC(=O)c3cc(CNCC4CCC4)c4[nH]cc(Cl)c4n3)c2)C[C@H](C)C1` [Compound B53, 3-chloro-7-(((cyclobutylmethyl)amino)methyl)-N-(5-((1s, 3s)-3-methyl-1-(4-methyl-4H-1,2,4-triazol-3-yl)cyclobutyl)pyridin-3-yl)-1H-pyrrolo[3,2-b]pyridine-5-carboxamide], the pIC50 was 8.51 at Cbl-b (aa36-427) and 8.01 at Cbl (aa49-434).

On to `C[C@@H]1CN(Cc2cc(C(=O)Nc3cccc([C@]4(c5nncn5C)C[C@@H](CC#N)C4)c3)nc3cc[nH]c23)C[C@H](C)C1(F)F` [Compound B19, N-(3-((1s,3S)-3-(cyanomethyl)-1-(4-methyl-4H-1,2,4-triazol-3-yl)cyclobutyl)phenyl)-7-(((3R,5S)-4,4-difluoro-3,5-dimethylpiperidin-1-yl)methyl)-1H-pyrrolo[3,2-b]pyridine-5-carboxamide], for which the pIC50 at Cbl-b (aa36-427) was 7.99; on Cbl (aa49-434) it was 7.11.

On to `Cn1cnnc1[C@]1(c2cccc(NC(=O)c3cc(CNCC4CCCC4)cn4ccnc34)c2)C[C@H](C)C1` [Compound A42, 6-(((cyclopentylmethyl)amino)methyl)-N-(3-((1s, 3s)-3-methyl-1-(4-methyl-4H-1,2,4-triazol-3-yl)cyclobutyl)phenyl)imidazo[1,2-a]pyridine-8-carboxamide], for which the pIC50 on Cbl-b (aa36-427) is 8.74; on Cbl (aa49-434), 8.12.

In the case of `Cn1cnnc1[C@]1(c2cncc(NC(=O)c3cc(CNC4(C)CC4)cn4ncnc34)c2)C[C@H](C)C1` [Compound A88, N-(5-((1s, 3s)-3-methyl-1-(4-methyl-4H-1,2,4-triazol-3-yl)cyclobutyl)pyridin-3-yl)-6-(((1-methylcyclopropyl)amino)methyl)-[1,2,4]triazolo[1,5-a]pyridine-8-carboxamide], the pIC50 is 8.36 on Cbl-b (aa36-427) and 7.70 on Cbl (aa49-434).

With `C[C@H](NCc1cc(C(=O)Nc2cccc([C@]3(c4nncn4C)C[C@@H](CC#N)C3)c2)nc2c1CCC2(C)C)C1CC1` [Compound C39, N-(3-((1s,3R)-3-(cyanomethyl)-1-(4-methyl-4H-1,2,4-triazol-3-yl)cyclobutyl)phenyl)-4-((((S)-1-cyclopropylethyl)amino)methyl)-7,7-dimethyl-6,7-dihydro-5H-cyclopenta[b]pyridine-2-carboxamide], the pIC50 at Cbl-b (aa36-427) was 9.10; on Cbl (aa49-434), 8.54.

`Cn1cnnc1[C@]1(c2cccc(NC(=O)c3cc(CNCC4(C)CCCC4)cn4c(Cl)cnc34)c2)C[C@H](CC#N)C1` [Compound A28, 3-chloro-N-(3-((1s, 3s)-3-(cyanomethyl)-1-(4-methyl-4H-1,2,4-triazol-3-yl)cyclobutyl)phenyl)-6-((((1-methylcyclopentyl)methyl)amino)methyl)imidazo[1,2-a]pyridine-8-carboxamide]: the pIC50 on Cbl-b (aa36-427) was 9.00; at Cbl (aa49-434), 8.62.

Turning to `Cn1cnnc1C[C@]1(c2cccc(NC(=O)c3cc(CNCC4(C)CCCC4)cn4c(Cl)cnc34)c2)C[C@H](C#N)C1` [Compound A29, 3-chloro-N-(3-((1r, 3r)-3-cyano-1-((4-methyl-4H-1,2,4-triazol-3-yl)methyl)cyclobutyl)phenyl)-6-((((1-methylcyclopentyl)methyl)amino)methyl)imidazo[1,2-a]pyridine-8-carboxamide], the values for the pIC50 at Cbl-b (aa36-427) and on Cbl (aa49-434) were 8.89 and 8.64, respectively.

For the molecule `Cn1cnnc1[C@]1(c2cccc(NC(=O)c3cc(CNC4(C)CCC4)cn4c(F)cnc34)c2)C[C@H](C)C1` [Compound A44, 3-fluoro-N-(3-((1s, 3s)-3-methyl-1-(4-methyl-4H-1,2,4-triazol-3-yl)cyclobutyl)phenyl)-6-(((1-methylcyclobutyl)amino)methyl)imidazo[1,2-a]pyridine-8-carboxamide], the pIC50 at Cbl-b (aa36-427) is 8.74; on Cbl (aa49-434), 8.11.
